Data: article PMC12249711, “Comprehensive Evaluation of 1H-Isoindole-1,3(2H)-Dione Derivatives: Pharmacokinetic Studies and Analgesic Potential in Various Pain Models” (International Journal of Molecular Sciences, 2025)

Key:
[1] = test system: mice; assay: Formalin test; type: in vivo, Albino Swiss mice; details: for Reduction of pain response, inflammatory phase: phase II (15–30 min)
Description: The pain reaction was induced by intraplantar (i.pl.) injection of 20 μL of 2.5% formalin solution into the right hind paw of the mouse (n = 136). […] Time (in seconds) spent on licking or biting the injected hind paw in selected intervals, 0–5 min (neurogenic phase) and 15–30 min (inflammatory phase), was measured in each group and was an indicator of nociceptive behavior. The procedure was based on the method described by with some modifications by.

[2] = test system: rats; assay: Carrageenan-induced mechanical hyperalgesia (pain pressure threshold, Randall-Selitto); type: in vivo, Wistar rats; details: for Pain Threshold: 20 mg/kg i.p., mean ± SEM, rats; for Increase in pain threshold: 20 mg/kg, vs control
Description: The acute and local inflammation and paw edema was induced by intraplantar (i.pl.) injection of 0.1 mL of 1% carrageenan solution in PBS into the rat’s right hind paw, according to the modified method of Winter and Lence, as described previously; (n = 84). The paw volume was measured using the dislocation of the water column of the plethysmometer (Type a, 7140; Plethysmometer, Ugo Basile, Gemonio, Italy) before (V0) and at 1, 2, and 3 h (V1, V2, V3) after i.pl. carrageenan injection. […] Vehicle (1% Tween 80) was administered by the same route as the tested compounds.
Furthermore, we performed the pain pressure threshold test to assess heightened sensitivity to mechanical stimuli. The experiment was conducted based on the method described by Randall and Selitto [58], with certain modifications. An analgesymeter (AnalgesyMeter 37215, Ugo Basile, Gemonio, Italy) was used to gradually apply increasing pressure (measured in grams) to the plantar surface of the right hind paw of the rat until paw withdrawal occurred. At this point, the intensity of the applied force (in grams) was recorded as the withdrawal threshold. The maximum force intensity was set at 250 g. Carrageenan induces a decrease in the nociceptive threshold in response to a mechanical stimulus, a condition referred to as hyperalgesia. For each rat, paw withdrawal thresholds were recorded both before (0 h) and 1, 2, and 3 h after carrageenan administration (i.e., 3.5 h after intraperitoneal pretreatment with the tested compounds). […] The analgesic effect of the tested compounds was assessed in comparison with the control group (1% Tween 80); the injection was performed intraperitoneally within 30 min of carrageenan administration. An analgesic effect occurs when the compound administered produces a pain response with greater pressure than the control group.

CC(C(=O)O)c1cccc(C(=O)c2ccccc2)c1 (stereo not drawn) [Ketoprofen, ketoprofen, reference compound]
Reduction of pain reaction (licking duration), neurogenic phase ([1]; phase I (0–5 min), 20 mg/kg i.p., vs vehicle): 59.7% | Reduction of neurogenic pain, neurogenic phase ([1]; phase I, ketoprofen doses other than 20 mg/kg): did not show a statistically significant reduction | Reduction of pain response, inflammatory phase ([1]; 10 mg/kg i.p., vs vehicle): 23.2% | Reduction of pain response, inflammatory phase ([1]; 20 mg/kg i.p., vs vehicle): 59.9% | Reduction of pain response, inflammatory phase ([1]; 50 mg/kg, vs vehicle): 71.8% | Pain Threshold ([2]; 0 h (before carrageenan)): 130 ± 2.9 g | Pain Threshold ([2]; 1 h after carrageenan): 155.8 ± 5.2 g | Pain Threshold ([2]; 2 h after carrageenan): 187.5 ± 9.0 g | Pain Threshold ([2]; 3 h after carrageenan): 178.3 ± 11.7 g | Increase in pain threshold ([2]; 1 h): 19.8% | Increase in pain threshold ([2]; 2 h): 38% | Increase in pain threshold ([2]; 3 h): 33.8%
